The values below come from article PMC9861092, “Napyradiomycin A4 and Its Relate Compounds, a New Anti-PRV Agent and Their Antibacterial Activities, from Streptomyces kebangsaanensis WS-68302” (Molecules, 2023).

Converted amounts (≈) assume the structure as drawn. “Also recorded” adds a separate entry of the source. Structures can show the parent of a compound that is named as a salt. Where only a bound is given, the exact number is not on record here.

In data set [1] the test system is Erysipelothrix rhusiopathiae WH13013. Kind of data set: microbe, parasite or virus in culture. Conditions: for MIC: Erysipelothrix rhusiopathiae, WH13013, read-out: MIC E. rhusiopathiae. The format is cell-based.
Data set [2] concerns Streptococcus suis SC19. Kind of data set: microbe, parasite or virus in culture. The format is cell-based. Conditions: for MIC: Streptococcus suis, SC19, read-out: MIC S. suis.
Data set [3] deals with Staphylococcus aureus ATCC 25923. Kind of data set: microbe, parasite or virus in culture. In kind it is cell-based. Conditions: for MIC: Staphylococcus aureus, ATCC25923, read-out: MIC S. aureus.
For data set [4], the system named is Escherichia coli ATCC 25922. In kind it is cell-based.
For data set [5], the system named is PRV protein. The format is cell-based, Pseudorabies virus.
Data set [6] has as its system PRV (Pseudorabies virus). The experiment in a line: microbe, parasite or virus in culture. Conditions: Suid alphaherpesvirus 1, MARC145, 72 h, read-out: IC50 against PRV.
Data set [7] is described as follows: in vitro. Conditions: African green monkey.
The subject of data set [8] is PRV (Pseudorabies virus).
Data set [9] deals with Bacillus subtilis ATCC6633. Conditions: cited from earlier work.

Regarding `CO/N=C(\C(=O)N[C@@H]1C(=O)N2C(C(=O)[O-])=C(C[n+]3cccc4c3CCC4)CS[C@H]12)c1csc(N)n1.O=S(=O)(O)O` [Cefpirome Sulfate, cefpirome sulfate, reference compound], in data set [1], the “MIC E. rhusiopathiae” value was less than 0.78 µg/mL. In addition, in data set [2], the “MIC S. suis” value is less than 0.78 µg/mL. The “MIC S. aureus” value in [3] was less than 0.78 µg/mL. Besides, the “MIC E. coli” value in data set [4] was 25 µg/mL.
For `CC(=CCC12OC(C)(C)C(Cl)CC1(Cl)C(=O)c1c(O)cc(O)cc1C2=O)CCC(=O)C(C)C` (stereo not shown) [Compound 1, napyradiomycin A4], the “Suppression of PRV protein (green fluorescence intensity) in indirect immunofluorescence assay” value (shortened to “Suppression of PRV protein”) in data set [5] is “strongest inhibition; also recorded: significantly suppressed”. Also, in [1], the “MIC E. rhusiopathiae” value came to 50 µg/mL (≈ 101 µM) and the MIC lay in the range of 25 to 50 µg/mL (≈ 50.3 to 101 µM). Moreover, the IC50 (commonly the concentration that gives 50% inhibition) in data set [6] stood at 2.06 ± 0.343 µM. The compound further displayed a CC50 in data set [7] of 30.8 ± 5.57 µM. In data set [2], the “MIC S. suis” value is “weak activity” and the MIC was 100 µg/mL (≈ 201 µM). The MIC in data set [3] came to 25 µg/mL (≈ 50.3 µM). Besides, the “TI (therapeutic index = CC50/IC50)” value in data set [8] was determined as 14.98.
As to `CC(C)=CCC12OC1(CC=C(C)C(O)CC=C(C)CO)C(=O)c1cc(O)cc(O)c1C2=O` (stereo not shown) [Compound 2, A80915H], in data set [1], the “MIC E. rhusiopathiae” value is “did not show any activity and -”. Also, the IC50 in [6] is greater than 90 µM. Besides, the CC50 in [7] was greater than 90 µM. For the same compound, the “MIC S. suis” value in data set [2] was “did not show any activity and -”. The “MIC S. aureus” value in data set [3] is “did not show any activity and -”. Further, the “IC50 against PRV” value in data set [8] is “did not display any apparent anti-PRV activity”.
Turning to `CC(C)=CCC/C(C)=C/C[C@@]12OC(C)(C)[C@H](Cl)C[C@]1(Cl)C(=O)c1c(O)cc(O)cc1C2=O` [Compound 3, napyradiomycin A1], the “Suppression of PRV protein” value in data set [5] is listed as “significantly suppressed”. The “MIC E. rhusiopathiae” value in [1] is 50 µg/mL (≈ 104 µM). The MIC is 25 to 50 µg/mL (≈ 51.9 to 104 µM) in data set [1], 3.12 µg/mL (≈ 6.49 µM) in data set [2] and less than 0.78 µg/mL in data set [3]. Also, the IC50 in [6] came out at 2.21 ± 0.375 µM. Further, the CC50 in data set [7] came to 5.79 ± 0.708 µM. Also, in [3], the “MIC S. aureus” value was “potent activities”. Further, the “TI (therapeutic index = CC50/IC50)” value in data set [8] came to 2.62.
As to `C=C1CC[C@H](Cl)C(C)(C)C1C[C@@]12OC(C)(C)[C@H](Cl)C[C@]1(Cl)C(=O)c1c(O)cc(O)cc1C2=O` (stereo partly shown) [Compound 4, napyradiomycin B1], in data set [5], the “Suppression of PRV protein” value is “significantly suppressed”. In [1], the “MIC E. rhusiopathiae” value turned out to be 50 µg/mL (≈ 96.9 µM) and the MIC lay within 25 to 50 µg/mL (≈ 48.5 to 96.9 µM). The IC50 in [6] is 13.3 ± 1.11 µM. Moreover, the CC50 in data set [7] is 19.6 ± 2.82 µM. Moreover, the MIC in data set [2] turned out to be 6.25 µg/mL (≈ 12.1 µM). For the same compound, in data set [3], the “MIC S. aureus” value was “potent activities” and the MIC is less than 0.78 µg/mL.
As to `CC(C)=CCC/C(C)=C/C[C@@]12O[C@]1(CC=C(C)C)C(=O)c1c(O)cc(O)cc1C2=O` [Compound 5, A80915G], in data set [1], the “MIC E. rhusiopathiae” value turned out to be 25 µg/mL (≈ 60.9 µM) and the MIC is 25 to 50 µg/mL (≈ 60.9 to 122 µM). Further, the IC50 in [6] was determined as 8.26 ± 0.902 µM. In data set [7], the CC50 was found to be 16.7 ± 1.12 µM. The MIC in data set [2] was 25 µg/mL (≈ 60.9 µM). Further, in [8], the “TI (therapeutic index = CC50/IC50)” value was determined as 2.05.
For the compound `CC(C)=CC[C@]12O[C@@]1(C/C=C(\C)CC/C=C(\C)C(=O)O)C(=O)c1cc(O)cc(O)c1C2=O` [Compound 6, A80915G-8″-acid], the “MIC E. rhusiopathiae” value in data set [1] amounted to 25 µg/mL (≈ 56.8 µM). The MIC in data set [1] was 25 to 50 µg/mL (≈ 56.8 to 114 µM); in data set [2], 50 µg/mL (≈ 114 µM); in data set [3] it was 50 µg/mL (≈ 114 µM). Besides, in [6], the IC50 stood at 26.5 ± 5 µM. Further, the CC50 in [7] was 46.3 ± 7.36 µM. Also, in [9], the “MIC against Bacillus subtilis ATCC6633” value is 64 µg/mL (≈ 145 µM).
As to `CC(C)=CCC/C(C)=C/C[C@]1(O)C(=O)c2cc(O)cc(O)c2C(=O)[C@@]1(Cl)CC=C(C)C` [Compound 7, naphthomevalin], the MIC is 40 µg/mL (≈ 89.5 µM) in data set [1], 20 µg/mL (≈ 44.7 µM) in [2] and less than 0.625 µg/mL in data set [3]. The IC50 in data set [6] is greater than 90 µM. The compound also came in with a CC50 in data set [7] greater than 0.045 µM. Also, the “MIC S. aureus” value in [3] is recorded as “potent activities”. The “IC50 against PRV” value in [8] is on record as “did not display any apparent anti-PRV activity”.
With `CC1(C)S[C@@H]2[C@H](NC(=O)Cc3ccccc3)C(=O)N2[C@H]1C(=O)O` [Penicillin G, Penicillin G sodium salt, reference compound], the MIC in data set [1] was 50 µg/mL; in data set [2], 12.5 µg/mL.
Take `NC(=O)c1ncn([C@@H]2O[C@H](CO)[C@@H](O)[C@H]2O)n1` [Ribavirin, reference compound]: the IC50 in [6] was 58 µM. Also, in data set [7], the CC50 was greater than 164 µM. For the same compound, in data set [8], the “TI (therapeutic index = CC50/IC50)” value is given as greater than 2.82.
